Reference: patent US10392363B2, “Methods for treating protozoan infections” (Neoculi Pty Ltd., priority 2014, dated 2019)

What was measured:
[1] = Cell toxicity assay (WST-1); assay type: cell-based, mouse; settings: mouse, RAW 264.7, 24 hours, read-out: GI50 macrophage
Outline: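 RAW 264.7 macrophages plated at 2×10^4 cells/ml, rested 2 h at 37 °C, then exposed to compounds (from DMSO) for 24 h. Metabolic activity read by WST-1 at 450 nm after 1 h; IC50 derived, selectivity index as macrophage IC50 divided by antiparasitic IC50.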

[2] = Microsomal stability, mouse; assay type: in vitro ADME; settings: mouse, 1 μM
Procedure: (§1) Incubation methods: The metabolic stability assay was performed by incubating each test compound (at 1 μM) with human and mouse liver microsomes (Xenotech, Lot#1210057 and 1310211, respectively) at 37° C. and 0.4 mg/mL protein concentration. The metabolic reaction was initiated by the addition of an NADPH-regenerating system (i.e. NADPH is the cofactor required for CYP450-mediated metabolism) and quenched at various time points over a 60 minute incubation period by the addition of acetonitrile containing diazepam as internal standard. Control samples (containing no NADPH) were included (and quenched at 2, 30 and 60 minutes) to monitor for potential degradation in the absence of cofactor. Analytical conditions: Instrument: Waters Micromass Xevo G2 QTOF coupled to a Waters Acquity UPLC; Detection: Positive electrospray ionisation under MSE mode; Cone Voltage 30 V; Column: Ascentis Express Amide column (50×2.1 mm, 2.7 μm); LC conditions: Gradient cycle time: 4 minutes; Injection volume: 5 μL; Flow rate: 0.4 mL/min; Mobile phase: Acetonitrile-water gradient with 0.05% formic acid Metabolite; Identification: A metabolite screen was not included in this study, however, since data was acquired using MSE mode, which allows for the simultaneous acquisition of low and high collision energy MS spectra, a post-hoc metabolite search may be conducted at a later date if warranted. […]

[3] = Microsomal stability, human; assay type: in vitro ADME; settings: human, 1 μM
Procedure: as §1

[4] = Release from Formulation B (Franz diffusion cells); assay type: physicochemical; settings: absolute ethanol receptor, 32° C., up to 24 hours
Procedure: Franz diffusion cells were utilized to quantify the release rate of NCL 812 and NCL099 from its topical formulations. Five milliliters of absolute ethanol, which was chosen as the desired release medium, was loaded into the receptor chamber. Temperature of the receptor fluid was kept constant, at 32±1° C. using a water jacket. Acetyl cellulose membranes, with pore size of 0.45 μm (Pall Corporation) was selected and placed between donor and receptor chamber. Followed by that, a number of test samples (Formulation B) was loaded into the donor chamber. One milliliter of receptor fluid was collected at regular time intervals of 0.25, 0.50, 0.75, 1, 2, 3, 4, 5, 6, 7, 8 and 24 hours through the sampling port. One milliliter of fresh absolute ethanol was immediately returned to the receptor chamber. UV-HPLC was utilized to analyse the content of the receptor fluids attained.

N=C(N/N=C/c1ccc(Cl)cc1)N/N=C/c1ccc(Cl)cc1 [NCL812, 1,3-bis[(E)-(4-chlorophenyl)methyleneamino]guanidine]
GI50 at 24 h [1]: 14.8 ± 1.34 µM
predicted hepatic extraction ratio (EH) [2]: < 0.3
predicted hepatic extraction ratio (EH) [3]: < 0.3
release profile from Formulation B [4]: acceptable release profile
